The text below walks through data of patent US20220323406A1, “METHODS AND COMPOSITIONS FOR DIFFERENTIATING STEM CELLS” (Massachusetts Institute of Technology, priority 2019, published 2022).

Where a name gives a salt, the structure may show the parent alone.

Assay [1] concerns ENR+CD organoids (ISC to Paneth cell differentiation). Kind of assay: Primary screen: basal (non-stimulated) lysozyme secretion LYZ.NS, 2.5-D 384-well ENR+CD organoid differentiation. The class given is cell-based, mouse. The conditions noted are these: primary screen; for Z.LYZ.NS: standard z score. An excerpt: (§1) High-throughput screening.
A further assay deals with ENR+CD organoids. Kind of assay: Primary screen: ATP (CellTiter-Glo 3D, CTG) cell number/viability, 2.5-D 384-well ENR+CD organoids.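 On all read-outs here: compounds given at plating and again on day 3 over a 6-day differentiation from ENR+CV stem-cell-enriched precursors, ATP measured on day 6, plate median as control.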 The conditions noted are these: primary screen; for Z.CTG: standard z score.
For assay [2], the system named is ENR+CD organoids (ISC to Paneth cell differentiation). Kind of assay: Primary screen: CCh-stimulated lysozyme secretion LYZ.S, 2.5-D 384-well ENR+CD organoid differentiation. The class given is cell-based, mouse. The conditions noted are these: primary screen.
Source text: as §1

Regarding `CCCCN1CCCCC1C(=O)Nc1c(C)cccc1C` (centres unmarked) [Bupivacaine HCl], the Dose.FC.LYZ.NS in assay [1] (dose 0.08 uM) was 0.002 log2 fold change; in assay [1] (dose 0.40 uM), −0.100 log2 fold change; in assay [1] (dose 2.00 uM), −0.137 log2 fold change; in assay [1] (dose 10.00 uM), −0.195 log2 fold change. In addition, the “Z.LYZ.NS (standard z score)” value in assay [1] (dose 0.08 uM) is recorded as 0.016. Also, the Z.LYZ.NS in assay [1] (dose 0.40 uM) is −0.871; in assay [1] (dose 2.00 uM), −1.196; in assay [1] (dose 10.00 uM) it was −1.700. Besides, the Dose.FC.CTG in the assay on ENR+CD organoids (dose 0.08 uM) is reported as −0.003 log2 fold change; with ENR+CD organoids (dose 0.40 uM) it was −0.217 log2 fold change; in the assay with ENR+CD organoids (dose 2.00 uM), −0.300 log2 fold change; in the assay on ENR+CD organoids (dose 10.00 uM), −0.364 log2 fold change. Moreover, the Dose.FC.LYZ.S is 0.082 log2 fold change in assay [2] (dose 0.08 uM), −0.169 log2 fold change in assay [2] (dose 0.40 uM), −0.210 log2 fold change in assay [2] (dose 2.00 uM) and −0.295 log2 fold change in assay [2] (dose 10.00 uM).

Take `CC(C)C[C@H](NC(=O)[C@@H](NC(=O)c1cccc(-c2ccccc2)n1)[C@@H](C)O)B(O)O` [CEP-18770 (Delanzomib)]: the Dose.FC.LYZ.NS in assay [1] (dose 0.08 uM) is listed as −0.108 log2 fold change; in assay [1] (dose 0.40 uM), −0.076 log2 fold change; in assay [1] (dose 2.00 uM), −0.063 log2 fold change; in assay [1] (dose 10.00 uM), −0.035 log2 fold change. The Z.LYZ.NS in assay [1] (dose 0.08 uM) was −0.937; in assay [1] (dose 0.40 uM), −0.664; in assay [1] (dose 2.00 uM) it was −0.546; in assay [1] (dose 10.00 uM), −0.308. In addition, the Dose.FC.CTG in the assay with ENR+CD organoids (dose 0.08 uM) is −0.953 log2 fold change; with ENR+CD organoids (dose 0.40 uM) it was −1.642 log2 fold change; with ENR+CD organoids (dose 2.00 uM), −0.990 log2 fold change; in the assay on ENR+CD organoids (dose 10.00 uM), −1.148 log2 fold change. Further, the Z.CTG was −2.276 in the assay with ENR+CD organoids (dose 0.08 uM), −3.923 in the assay on ENR+CD organoids (dose 0.40 uM), −2.364 with ENR+CD organoids (dose 2.00 uM) and −2.742 in the assay on ENR+CD organoids (dose 10.00 uM). Also, the Dose.FC.LYZ.S in assay [2] (dose 0.08 uM) is listed as −0.179 log2 fold change; in assay [2] (dose 0.40 uM), −0.159 log2 fold change; in assay [2] (dose 2.00 uM), −0.180 log2 fold change; in assay [2] (dose 10.00 uM), −0.149 log2 fold change.

Turning to `O=C(NC(NC(=S)Nc1ccc(F)c([N+](=O)[O-])c1)C(Cl)(Cl)Cl)C(c1ccccc1)c1ccccc1` (centres unmarked) [CGK733], the Dose.FC.LYZ.NS was 0.099 log2 fold change in assay [1] (dose 0.08 uM), −0.026 log2 fold change in assay [1] (dose 0.40 uM), −0.099 log2 fold change in assay [1] (dose 2.00 uM) and −0.122 log2 fold change in assay [1] (dose 10.00 uM). Moreover, the Z.LYZ.NS is given as 0.863 in assay [1] (dose 0.08 uM), −0.222 in assay [1] (dose 0.40 uM), −0.865 in assay [1] (dose 2.00 uM) and −1.063 in assay [1] (dose 10.00 uM). Also, the Dose.FC.CTG in the assay with ENR+CD organoids (dose 0.08 uM) is recorded as −0.362 log2 fold change; in the assay on ENR+CD organoids (dose 0.40 uM), −0.093 log2 fold change; in the assay on ENR+CD organoids (dose 2.00 uM), −0.244 log2 fold change; in the assay with ENR+CD organoids (dose 10.00 uM), −0.478 log2 fold change. Besides, the Z.CTG in the assay with ENR+CD organoids (dose 0.08 uM) was −0.864; in the assay with ENR+CD organoids (dose 0.40 uM) it was −0.221; in the assay on ENR+CD organoids (dose 2.00 uM), −0.582; in the assay with ENR+CD organoids (dose 10.00 uM), −1.143. Also, the Dose.FC.LYZ.S in assay [2] (dose 0.08 uM) is 0.008 log2 fold change; in assay [2] (dose 0.40 uM), −0.018 log2 fold change; in assay [2] (dose 2.00 uM), −0.125 log2 fold change; in assay [2] (dose 10.00 uM), −0.230 log2 fold change.

Regarding `Nc1ncnc2n[nH]c(Nc3ccc(F)cc3)c12` [CGP57380], the Dose.FC.LYZ.NS in assay [1] (dose 0.08 uM) is 0.218 log2 fold change; in assay [1] (dose 0.40 uM), −0.041 log2 fold change; in assay [1] (dose 2.00 uM), −0.055 log2 fold change; in assay [1] (dose 10.00 uM), −0.037 log2 fold change. For the same compound, the Z.LYZ.NS in assay [1] (dose 0.08 uM) is given as 1.900; in assay [1] (dose 0.40 uM), −0.354; in assay [1] (dose 2.00 uM) it was −0.477; in assay [1] (dose 10.00 uM), −0.321. For the same compound, the Dose.FC.CTG with ENR+CD organoids (dose 0.08 uM) is on record as 0.108 log2 fold change; with ENR+CD organoids (dose 0.40 uM), −0.293 log2 fold change; with ENR+CD organoids (dose 2.00 uM) it was −0.460 log2 fold change; with ENR+CD organoids (dose 10.00 uM) it was 0.055 log2 fold change. For the same compound, the Z.CTG with ENR+CD organoids (dose 0.08 uM) is recorded as 0.258; with ENR+CD organoids (dose 0.40 uM), −0.700; with ENR+CD organoids (dose 2.00 uM) it was −1.098; in the assay on ENR+CD organoids (dose 10.00 uM) it was 0.132. The Dose.FC.LYZ.S is 0.096 log2 fold change in assay [2] (dose 0.08 uM), 0.054 log2 fold change in assay [2] (dose 0.40 uM), −0.095 log2 fold change in assay [2] (dose 2.00 uM) and −0.088 log2 fold change in assay [2] (dose 10.00 uM).

`CCNC(=O)[C@H]1O[C@@H](n2cnc3c(N)nc(NCCc4ccc(CCC(=O)O)cc4)nc32)[C@H](O)[C@@H]1O` [CGS 21680 HCl]: the Dose.FC.LYZ.NS in assay [1] (dose 0.08 uM) is reported as 0.132 log2 fold change; in assay [1] (dose 0.40 uM), 0.167 log2 fold change; in assay [1] (dose 2.00 uM), 0.055 log2 fold change; in assay [1] (dose 10.00 uM), −0.251 log2 fold change. In addition, the Z.LYZ.NS in assay [1] (dose 0.08 uM) is 1.151; in assay [1] (dose 0.40 uM), 1.452; in assay [1] (dose 2.00 uM), 0.483; in assay [1] (dose 10.00 uM) it was −2.187. Moreover, the Dose.FC.CTG is given as 0.303 log2 fold change with ENR+CD organoids (dose 0.08 uM), 0.439 log2 fold change in the assay on ENR+CD organoids (dose 0.40 uM), 0.335 log2 fold change in the assay with ENR+CD organoids (dose 2.00 uM) and −1.393 log2 fold change with ENR+CD organoids (dose 10.00 uM). Also, the Dose.FC.LYZ.S in assay [2] (dose 0.08 uM) is 0.180 log2 fold change; in assay [2] (dose 0.40 uM), 0.191 log2 fold change; in assay [2] (dose 2.00 uM), 0.097 log2 fold change; in assay [2] (dose 10.00 uM), −0.334 log2 fold change.

Turning to `O=c1[nH]c2ccc(Cl)cc2c(N[C@@H]2CN3CCC2CC3)c1-c1nc2ccccc2[nH]1` [CHIR-124], the Dose.FC.LYZ.NS is −0.155 log2 fold change in assay [1] (dose 0.08 uM), −0.240 log2 fold change in assay [1] (dose 0.40 uM), −0.220 log2 fold change in assay [1] (dose 2.00 uM) and −0.140 log2 fold change in assay [1] (dose 10.00 uM). In addition, the Z.LYZ.NS is on record as −1.352 in assay [1] (dose 0.08 uM), −2.090 in assay [1] (dose 0.40 uM), −1.916 in assay [1] (dose 2.00 uM) and −1.223 in assay [1] (dose 10.00 uM). For the same compound, the Dose.FC.CTG in the assay on ENR+CD organoids (dose 0.08 uM) is −0.256 log2 fold change; in the assay on ENR+CD organoids (dose 0.40 uM), −0.853 log2 fold change; in the assay on ENR+CD organoids (dose 2.00 uM), −0.861 log2 fold change; in the assay on ENR+CD organoids (dose 10.00 uM), −1.555 log2 fold change. Moreover, the Z.CTG is −0.612 in the assay with ENR+CD organoids (dose 0.08 uM), −2.038 with ENR+CD organoids (dose 0.40 uM), −2.057 with ENR+CD organoids (dose 2.00 uM) and −3.714 in the assay on ENR+CD organoids (dose 10.00 uM). The Dose.FC.LYZ.S is reported as −0.267 log2 fold change in assay [2] (dose 0.08 uM), −0.339 log2 fold change in assay [2] (dose 0.40 uM), −0.352 log2 fold change in assay [2] (dose 2.00 uM) and −0.332 log2 fold change in assay [2] (dose 10.00 uM).

`Cc1[nH]c2ccccc2c1CCNC(=O)c1cccs1` [CK-636]: the Dose.FC.LYZ.NS is on record as 0.039 log2 fold change in assay [1] (dose 0.08 uM), −0.049 log2 fold change in assay [1] (dose 0.40 uM), −0.066 log2 fold change in assay [1] (dose 2.00 uM) and −0.108 log2 fold change in assay [1] (dose 10.00 uM). Moreover, the Z.LYZ.NS was 0.336 in assay [1] (dose 0.08 uM), −0.427 in assay [1] (dose 0.40 uM), −0.573 in assay [1] (dose 2.00 uM) and −0.944 in assay [1] (dose 10.00 uM). Further, the Dose.FC.CTG was 0.202 log2 fold change in the assay with ENR+CD organoids (dose 0.08 uM), −0.004 log2 fold change in the assay with ENR+CD organoids (dose 0.40 uM), −0.201 log2 fold change in the assay on ENR+CD organoids (dose 2.00 uM) and −0.169 log2 fold change in the assay with ENR+CD organoids (dose 10.00 uM). For the same compound, the Z.CTG in the assay with ENR+CD organoids (dose 0.08 uM) was 0.483; with ENR+CD organoids (dose 0.40 uM) it was −0.010; in the assay with ENR+CD organoids (dose 2.00 uM) it was −0.479; in the assay with ENR+CD organoids (dose 10.00 uM), −0.404. Further, the Dose.FC.LYZ.S was 0.080 log2 fold change in assay [2] (dose 0.08 uM), −0.013 log2 fold change in assay [2] (dose 0.40 uM), 0.072 log2 fold change in assay [2] (dose 2.00 uM) and −0.103 log2 fold change in assay [2] (dose 10.00 uM).

As for `C=CC(=O)Nc1cccc(Nc2nc(Nc3ccc(Oc4ccnc(C(=O)NC)c4)cc3)ncc2F)c1` [CNX-774], the Dose.FC.LYZ.NS in assay [1] (dose 0.08 uM) is listed as 0.075 log2 fold change; in assay [1] (dose 0.40 uM), −0.008 log2 fold change; in assay [1] (dose 2.00 uM) it was 0.158 log2 fold change; in assay [1] (dose 10.00 uM), −0.043 log2 fold change. Further, the Z.LYZ.NS is listed as 0.655 in assay [1] (dose 0.08 uM), −0.067 in assay [1] (dose 0.40 uM), 1.378 in assay [1] (dose 2.00 uM) and −0.376 in assay [1] (dose 10.00 uM). The Dose.FC.CTG was 0.259 log2 fold change with ENR+CD organoids (dose 0.08 uM), 0.177 log2 fold change in the assay on ENR+CD organoids (dose 0.40 uM), −0.109 log2 fold change in the assay on ENR+CD organoids (dose 2.00 uM) and −0.081 log2 fold change in the assay with ENR+CD organoids (dose 10.00 uM). Moreover, the Z.CTG is 0.619 with ENR+CD organoids (dose 0.08 uM), 0.422 in the assay with ENR+CD organoids (dose 0.40 uM), −0.260 in the assay on ENR+CD organoids (dose 2.00 uM) and −0.194 in the assay with ENR+CD organoids (dose 10.00 uM). Also, the Dose.FC.LYZ.S in assay [2] (dose 0.08 uM) is given as 0.014 log2 fold change; in assay [2] (dose 0.40 uM) it was −0.027 log2 fold change; in assay [2] (dose 2.00 uM), 0.082 log2 fold change; in assay [2] (dose 10.00 uM), −0.089 log2 fold change.
